Results: patent publication US20230172885A1, “THIOL-CONTAINING COMPOUNDS FOR USE IN TREATING CORONAVIRUS” (priority 2020, published 2023)
Entries after “also recorded” stand apart in the source; their conditions may differ. Like-named read-outs stand apart in the source and are kept apart here.

Assays:
[1] = cited from earlier work
[2] = system: SARS-2-S pseudovirus (rVSV-ΔG luciferase); type: cell-based; settings: pseudovirus pre-incubated with 1.56-100 mM drug for 2 hours, 66-fold dilution
[3] = system: SARS CoV2 (isolate USA-WA1/2020); parameters: species or system Syrian hamsters (Mesocricetus auratus); settings: hamster, in vivo
[4] = molecular target: T1, RBD^original (SARS-CoV-2 receptor binding domain) binding to ACE2 (Severe acute respiratory syndrome coronavirus 2, UniProt P0DTC2); settings: for inhibition of binding of RBD^original to ACE2: RBD exposed to drug for 60 minutes, 0 to 20 mM; for binding of RBD^original to ACE2 at one and two hours post exposure and wash: drug at 5 mM for 1 hour, three washes
T1 construct: ACRO Biosystems); purchased ACRO Biosystems

[5] = system: SARS-CoV-2, isolate USA-WA1/2020; type: cell-based
[6] = system: VSV pseudotype bearing the SARS-2-S protein (VSV-S); type: cell-based, SARS-CoV-2
[7] = molecular target: T2, SARS-CoV-2 spike protein (SARS-2-S) binding to ACE2 (Severe acute respiratory syndrome coronavirus 2, UniProt P0DTC2)
T2 construct: Recombinantly expressed RBD of SARS-2-S was first immobilized to a surface

[8] = type: physicochemical; settings: 11 mg/mL in 20 mM sodium citrate, pH 4.5, 38.5 mM NaCl; Aerogen Solo vibrating mesh nebulizer

SMILES: OCC(S)CS (stereo not shown) [2,3-Dimercaprol]
- pKa (thiol group) ([1]; dithiol drugs, second thiol): 10.6

SMILES: NCCCNCCSP(=O)(O)O [Amifostine]
- pseudovirus cell entry, pseudovirus pre-treatment [2]: did not inhibit viral cell entry

SMILES: CC(C)(S)C(=O)N[C@@H](CS)C(=O)O [Bucillamine]
- pKa (thiol group) [1]: 8.4
- pKa (thiol group) ([1]; dithiol drugs, second thiol): 10.2

SMILES: N[C@@H](CSCC(=O)O)C(=O)O [Carbocysteine]
- pseudovirus cell entry, pseudovirus pre-treatment [2]: did not inhibit viral cell entry

SMILES: NCCS [Cysteamine]
- SARS-CoV2 viral titers (viral RNA, RT-qPCR) in lungs [3]: did not decrease; also recorded: does not decrease
- interleukin-6 levels in lung lavage [3]: lower than control
- lung weights normalized to terminal body weights [3]: lower than in control groups
- lymphocytes in BAL fluid [3]: decreases
- neutrophils in BAL fluid [3]: decreases
- severity of SARS-CoV2 lung inflammation [3]: did decrease; also recorded: decreased; also recorded: has anti-inflammatory effects
- total leukocyte counts in the bronchoalveolar lavage (BAL) fluid [3]: lower than control
- potency among thiol drugs in the in vitro assays (SARS-CoV-2): most potent thiol drug
- pKa (thiol group) [1]: 8.2
- pseudovirus cell entry, pseudovirus pre-treatment [2]: decrease the entry efficiency
- inhibition of binding of RBD^original to ACE2 [4]: decreased binding; also recorded: strong inhibitory effects
- binding of RBD^original to ACE2 at one and two hours post exposure and wash [4]: binding inhibition was retained for two hours
- cytopathic effects (CPE) in virus-infected cells, virus exposed to drug prior to infection [5]: inhibit live virus infection; also recorded: significantly inhibited

SMILES: O=C(O)C(S)C(S)C(=O)O (stereo not shown) [Dimercaptosuccinic acid]
- pKa (thiol group) [1]: 8.9
- pKa (thiol group) ([1]; dithiol drugs, second thiol): 10.8

SMILES: N[C@@H](CCC(=O)N[C@@H](CS)C(=O)NCC(=O)O)C(=O)O [Glutathione]
- pKa (thiol group) [1]: 9.2

SMILES: O=S(=O)([O-])CCS.[Na+] [MESNA, 2-mercaptoethane sulfonate, sodium salt]
- antiviral efficacy in vitro compared with NAC (SARS-CoV-2): superior antiviral efficacy in vitro
- inhibition of binding of RBD^original to ACE2 [4]: strong inhibitory effects
- binding of RBD^original to ACE2 at one and two hours post exposure and wash [4]: binding inhibition was retained for two hours

SMILES: O[C@@H]1[C@@H](O)[C@@H](O[C@H]2O[C@H](CS)[C@@H](O)[C@H](O)[C@H]2O)O[C@H](CS)[C@H]1O [MUC-31, 6,6′-dithiotrehalose]
- SARS-CoV2 viral titers (viral RNA, RT-qPCR) in lungs ([3]; 0.5 mg/kg): decreases; also recorded: significantly lower
- interleukin-6 levels in lung lavage ([3]; 0.5 mg/kg): lower than control
- lung weights normalized to terminal body weights ([3]; 0.5 mg/kg): lower than in control groups
- macrophages in BAL fluid ([3]; 0.5 mg/kg): decreases
- severity of SARS-CoV2 lung inflammation ([3]; 0.5 mg/kg): decreased; also recorded: limit SARS-COV-2-associated lung inflammation
- total leukocyte counts in the bronchoalveolar lavage (BAL) fluid ([3]; 0.5 mg/kg): lower than control
- effectiveness for inhibiting viral entry compared with NAC [6]: more effective than NAC
- inhibition of VSV-S cellular entry [6]: inhibited VSV-S cellular entry; also recorded: inhibited from entering
- inhibition of VSV-S entry, all three concentrations [6]: potent inhibition
- pseudovirus cell entry, pseudovirus pre-treatment [2]: decrease the entry efficiency
- binding inhibition after drug is washed out of the reaction mixture [7]: binding inhibition persists following drug contact
- inhibition of binding of ACE2 to SARS-2-S [7]: inhibit binding
- potency in inhibiting ACE2 binding compared to NAC [7]: stronger potency
- inhibition of binding of RBD^original to ACE2 [4]: decreased binding; also recorded: strong inhibitory effects
- binding of RBD^original to ACE2 at one and two hours post exposure and wash [4]: binding inhibition was retained for two hours
- average mass median aerodynamic diameter (MMAD) of the exposure atmosphere [8]: 2.60 µm
- cytopathic effects (CPE) in virus-infected cells, virus exposed to drug prior to infection [5]: inhibit live virus infection; also recorded: significantly inhibited

SMILES: CC(=O)N[C@@H](CS)C(=O)O [NAC, N-acetyl-L-cysteine]
- cell entry inhibition of VSV-S, only 5 and 25 mM [6]: significant cell entry inhibition
- inhibition of VSV-S cellular entry [6]: inhibited VSV-S cellular entry; also recorded: inhibited from entering
- inhibition of binding of ACE2 to SARS-2-S [7]: inhibit binding

SMILES: CC(C)(S)[C@@H](N)C(=O)O [Penicillamine]
- pKa (thiol group) [1]: 10.5

SMILES: CC(S)C(=O)NCC(=O)O (stereo not shown) [Tiopronin]
- pKa (thiol group) [1]: 8.7

SMILES: NCCCNCCS [WR-1065]
- pKa (thiol group) [1]: 7.7 (WR-1065)
- inhibition of binding of RBD^original to ACE2 [4]: strong inhibitory effects
- binding of RBD^original to ACE2 at one and two hours post exposure and wash [4]: binding inhibition was retained for two hours
